From patent US6992079B2, “Substituted 11-phenyl-dibenzazepine compounds useful for the treatment or prevention of diseases characterized by abnormal cell proliferation” (President Fellows of Harvard College, priority 1997, dated 2006)
pIC50: −log10 of the molar value.

Experiments:
Type in all cases: cell-based
MDA-MB-23 = test: SRB antiproliferative assay; settings: Homo sapiens; MDA-MB-23 (Breast); SRB; 5% FCS/5 day incubation; read-out: IC50
From the text: (§1) The cells were passaged using Trypsin (Gibco).

MMRU = test: SRB antiproliferative assay; settings: Homo sapiens, MMRU (Melanoma), 5% FCS/5 day incubation
From the text: as §1

RL-60 (TS) = test: In-Vitro Testing SRB panel: Leukemia
MOLT-4 = test: In-Vitro Testing SRB panel: Leukemia; settings: MOLT-4
HCT-15 = test: In-Vitro Testing SRB panel: Colon Cancer; settings: HCT-15
LOX IMVI = test: In-Vitro Testing SRB panel: Melanoma
MALM-3M = test: In-Vitro Testing SRB panel: Melanoma; settings: MALM-3M
M14 = test: In-Vitro Testing SRB panel: Melanoma; settings: M14
SK-MEL-5 = test: In-Vitro Testing SRB panel: Melanoma; settings: SK-MEL-5
UACC-62 = test: In-Vitro Testing SRB panel: Melanoma; settings: UACC-62
[1] = Homo sapiens, read-out: LC50 (the source's name)

`COc1cccc2c1C(c1ccccc1Cl)c1cc(Cl)ccc1N(C(=O)c1ccc([N+](=O)[O-])cc1)C2` (stereo not shown) [Compound 31] showed a pIC50 (MDA-MB-23) of 6.40, a pIC50 (MMRU) of 6.70 and a GI50 (RL-60 (TS); Homo sapiens) of 512 nM. The CC50 (RL-60 (TS); Homo sapiens, RL-60 (TB), read-out: LC50 (the source's name)) was over 100 µM, the TGI (RL-60 (TS); RL-60 (TB)) was 1.28E−05 Molar and the “Percent Growth” value (RL-60 (TS); RL-60 (TB), log10 conc -4 Molar) was −19%. For the same molecule, the “Percent Growth” value (RL-60 (TS); RL-60 (TB), log10 conc -5 Molar) was 3%, the “Percent Growth” value (RL-60 (TS); RL-60 (TB), log10 conc -6 Molar) was 39% and the “Percent Growth” value (RL-60 (TS); RL-60 (TB), log10 conc -7 Molar) was 77%. For the same molecule, the “Percent Growth” value (RL-60 (TS); RL-60 (TB), log10 conc -8 Molar) was 81%, the GI50 (MOLT-4; Homo sapiens) was 336 nM and the CC50 (MOLT-4; [1]) was over 100 µM. For the same molecule, the TGI (MOLT-4) was over 1.00E−04 Molar, the “Percent Growth” value (MOLT-4; log10 conc -4 Molar) was 6% and the “Percent Growth” value (MOLT-4; log10 conc -5 Molar) was 14%. For the same molecule, the “Percent Growth” value (MOLT-4; log10 conc -6 Molar) was 24%, the “Percent Growth” value (MOLT-4; log10 conc -7 Molar) was 79% and the “Percent Growth” value (MOLT-4; log10 conc -8 Molar) was 95%. The TGI (HCT-15) was over 1.00E−04 Molar, the “Percent Growth” value (HCT-15; log10 conc -4 Molar) was 15% and the “Percent Growth” value (HCT-15; log10 conc -5 Molar) was 20%. For the same molecule, the “Percent Growth” value (HCT-15; log10 conc -6 Molar) was 34%, the “Percent Growth” value (HCT-15; log10 conc -7 Molar) was 79% and the “Percent Growth” value (HCT-15; log10 conc -8 Molar) was 96%. For the same molecule, the GI50 (HCT-15; Homo sapiens) was 444 nM, the CC50 (HCT-15; [1]) was over 100 µM and the TGI (LOX IMVI) was over 1.00E−04 Molar. The GI50 (LOX IMVI; Homo sapiens) was 617 nM, the CC50 (LOX IMVI; [1]) was over 100 µM and the “Percent Growth” value (LOX IMVI; log10 conc -4 Molar) was 13%. For the same molecule, the “Percent Growth” value (LOX IMVI; log10 conc -5 Molar) was 12%, the “Percent Growth” value (LOX IMVI; log10 conc -6 Molar) was 39% and the “Percent Growth” value (LOX IMVI; log10 conc -7 Molar) was 93%. For the same molecule, the “Percent Growth” value (LOX IMVI; log10 conc -8 Molar) was 97%, the CC50 (MALM-3M; [1]) was over 100 µM and the TGI (MALM-3M) was over 1.00E−04 Molar. For the same molecule, the “Percent Growth” value (MALM-3M; log10 conc -4 Molar) was 97%, the “Percent Growth” value (MALM-3M; log10 conc -5 Molar) was 96% and the “Percent Growth” value (MALM-3M; log10 conc -6 Molar) was 42%. The “Percent Growth” value (MALM-3M; log10 conc -7 Molar) was 123%, the “Percent Growth” value (MALM-3M; log10 conc -8 Molar) was 117% and the GI50 (M14; Homo sapiens) was 1220 nM. The CC50 (M14; [1]) was over 100 µM, the TGI (M14) was over 1.00E−04 Molar and the “Percent Growth” value (M14; log10 conc -4 Molar) was 21%. The “Percent Growth” value (M14; log10 conc -5 Molar) was 30%, the “Percent Growth” value (M14; log10 conc -6 Molar) was 52% and the “Percent Growth” value (M14; log10 conc -7 Molar) was 93%. For the same molecule, the “Percent Growth” value (M14; log10 conc -8 Molar) was 92%, the GI50 (SK-MEL-5; Homo sapiens) was 597 nM and the CC50 (SK-MEL-5; [1]) was over 100 µM. The TGI (SK-MEL-5) was over 1.00E−04 Molar, the “Percent Growth” value (SK-MEL-5; log10 conc -4 Molar) was 17% and the “Percent Growth” value (SK-MEL-5; log10 conc -5 Molar) was 27%. For the same molecule, the “Percent Growth” value (SK-MEL-5; log10 conc -6 Molar) was 41%, the “Percent Growth” value (SK-MEL-5; log10 conc -7 Molar) was 81% and the “Percent Growth” value (SK-MEL-5; log10 conc -8 Molar) was 94%. The GI50 (UACC-62; Homo sapiens) was 430 nM, the CC50 (UACC-62; [1]) was over 100 µM and the TGI (UACC-62) was over 1.00E−04 Molar. The “Percent Growth” value (UACC-62; log10 conc -4 Molar) was 14%, the “Percent Growth” value (UACC-62; log10 conc -5 Molar) was 32% and the “Percent Growth” value (UACC-62; log10 conc -6 Molar) was 36%. The “Percent Growth” value (UACC-62; log10 conc -7 Molar) was 74%.
